Source: patent US20160298082A1, “METHOD FOR OBTAINING IMMUNO-STIMULATORY DENDRITIC CELLS” (TRANSIMMUNE AG, priority 2013, published 2016)
“Also recorded” adds a separate entry of the source.

Legend:
GILZ [1] = test: GILZ mRNA expression in CD11c+ MoDC (quantitative real-time PCR); format: cell-based, human; details: relative to untreated MoDC cultured alone; 24 hr (FIG. 13B); dex 100 nM; PUVA 100 ng/mL, 1 J/cm^2
Procedure: Monocytes were cultured at a density of 5×10^6 cells/mL in 6- and 12-well polystyrene tissue culture plates at 37° C. and 5% CO2 in RPMI-1640 (Gibco) supplemented with heat-inactivated 15% AB serum (Gemini) and 1% penicillin/streptomycin (now referred to as complete media). 800 IU/mL recombinant human GM-CSF (R&D Systems) and 1000 IU/mL recombinant human IL-4 (R&D Systems) were added to cultures for 36 hr to induce monocyte to DC differentiation as described.
Non-adherent cells (purity: 66.0±4.5% CD3^+) removed during plastic adherence will now be generally referred to as lymphocytes. Lymphocytes were treated with 8-MOP (100 ng/mL) and UVA (1 J/cm^2), washed with PBS, and co-cultured in complete media at 37° C. and 5% CO2 with either PUVA-treated or untreated-MoDC in a ratio of 5 or 10 lymphocytes to 1 MoDC. […] 24 hr after LPS stimulation, cells were harvested for RNA isolation and immunophenotyping, and supernatants were collected for cytokine quantification.
RNA was isolated from CD11c^+ MoDC using QIAShredder columns (QIAGEN) and the RNeasy Mini Kit (QIAGEN) with on-column Dnase I treatment (QIAGEN). RNA yield and purity were assessed using a NanoDrop ND-1000 spectrophotometer. cDNA was obtained using the High Capacity cDNA Reverse Transcription Kit (Applied Biosystems) in a 96-well thermocycler (MJ Research PTC-200). […]

CD11c+ cells = test: Apoptosis / cell death of CD11c+ MoDC (Annexin-V/7-AAD); format: cell-based, human
Procedure: Immunofluorescence was analyzed using a FACSCalibur L (BD Biosciences) within 2 hr of fixation with 2% paraformaldehyde.

lymphocytes [2] = test: Apoptosis of lymphocytes (Annexin-V/7-AAD); format: cell-based, human
MoDC [3] = test: Cytokine quantification in MoDC supernatants after LPS stimulation (magnetic bead multiplex); format: cell-based, human
Procedure: Lymphocytes were treated with 8-MOP (100 ng/mL) and UVA (1 J/cm^2), washed with PBS, and co-cultured in complete media at 37° C. and 5% CO2 with either PUVA-treated or untreated-MoDC in a ratio of 5 or 10 lymphocytes to 1 MoDC. MoDC treated for 24 hr with 100 nM dexamethasone (Sigma) served as the positive control group. After 24 hr, cells were harvested and MoDC were re-purified. […] CD11c^+ MoDC were re-plated at 0.5-1.0×10^6 cells/mL in complete media and stimulated with 100 ng/mL LPS (Sigma). 24 hr after LPS stimulation, cells were harvested for RNA isolation and immunophenotyping, and supernatants were collected for cytokine quantification.
(§1) Culture supernatants were analyzed in a multiplex format utilizing magnetic beads to IL-6, IL-8, IL-10, IL-12p70, IFN-γ, TNF-α, RANTES, MCP-1, and MIP-1β (BioRad Laboratories). For siRNA experiments, supernatants were analyzed with enzyme-linked immunosorbent assay (ELISA) kits for IL-10 (R&D Systems) and IL-12p70 (Enzo Life Science). All samples and standards were run in duplicate and analyzed using the LUMINEX 200 (LUMINEX), or the BioTek EL800 (BioTek).

MoDC [4] = test: IL-10 and IL-12p70 ELISA in siRNA experiments; format: cell-based, human; details: siRNA experiment, not transfected
Procedure: Silencer select pre-designed and validated GILZ siRNA (Invitrogen), with off-target prediction algorithms, was used to knockdown GILZ expression. Mo-DC were transfected using Lipofectamine RNAiMAX Reagent (Invitrogen). RNAi duplex and lipofectamine reagent were incubated together for 20 min, then added to MoDC cultures and incubated for 2 hr at 37° C. and 5% CO2. Transfected MoDC were treated in an identical fashion as described for the MoDC/lymphocyte co-cultures. MoDC were also transfected with scramble siRNA.
as §1

lymphocytes [5] = test: Apoptosis of ECP-processed lymphocytes after overnight incubation; format: cell-based, human; details: UVA-activated 8-MOP; APO2-PE, Trypan blue and/or annexin/propidium iodide
immature MoDC = details: 24 hr
GILZ [6] = test: GILZ mRNA expression in CD11c+ MoDC (quantitative real-time PCR); format: cell-based, human
[7] = biological target: β1 integrin (CD29), active (open) conformation, on monocytes (human) (UniProt P05556); test: flow cytometry of monocytes before passage through the plates
[8] = biological target: β1 integrin (CD29), active (open) conformation, on monocytes (human) (UniProt P05556); test: flow cytometry of monocytes immediately after flow over platelet-coated plates, low number of platelet interactions
[9] = biological target: β1 integrin (CD29), active (open) conformation, on monocytes (human) (UniProt P05556); test: flow cytometry of monocytes immediately after flow over platelet-coated plates, high number of platelet interactions
P-selectin = test: Surface expression of P-selectin on platelets (platelet activation); format: cell-based, human; details: platelets activated with thrombin (positive control)
Source text: Monoclonal antibodies for immunophenotyping included CD14 (LPS receptor; monocytes), CD11c (integrin subunit; monocytes and DC), HLA-DR (class II MHC molecule), CD83 (DC marker), CD62p (P-selectin; activated platelets), and CD61 (integrin subunit; platelets). Antibodies were obtained from Beckman Coulter (CD14, CD11c, HLADR, CD83) or Sigma (CD62p, CD61) and used at their pre-determined optimal dilutions. Background staining was established with appropriate isotype controls, and immunofluorescence was analyzed using a FC500 flow cytometer (Beckman Coulter). Two-color membrane staining was performed by adding the pre-determined optimal concentrations of both antibodies directly conjugated to FITC or PE and incubating for 20 min at 4° C., followed by washing to remove unbound antibodies. Combined membrane and cytoplasmic staining was performed following manufacturer's instructions for cell fixation and permeabilization (Intraprep kit, Beckman Coulter).
Upon encountering stimuli such as damaged endothelium or thrombin, platelets become activated and almost instantaneously translocate these intracellular proteins to the plasma membrane (Kaplan et al., 1979, see references). […] To test this hypothesis, surface expression of P-selectin, a well-known marker of platelet activation, was assessed before and after adhesion. […]

monocytes = test: Static co-culture of monocytes with platelets; format: cell-based, human; details: platelets activated with thrombin; no flow; 18 hours
Procedure: Experiments involving co-cultures of monocytes with additional platelets were performed as described in the Overnight Culture section, with a few necessary modifications. Following Ficoll-Hypaque separation, mononuclear cells were resuspended in 30% AB serum/RMPI to a final concentration of 10×10^6 cells/ml, of which 1 ml was allocated to each well of a 16-well plate. An additional 1 ml of platelets (suspended in RPMI, at 2× the desired final concentration) or RPMI without platelets was then added to each well. To activate platelets, 500 μl containing 2 units of thrombin was added to half the wells, and 500 μl of RPMI was added to the others to balance the volume. Cells were then incubated as described previously.

[10] = biological target: RGD-recognizing receptors (on monocytes); test: cell-based or functional assay
[11] = 100 ng/mL and 1 J/cm^2, 24 hr after treatment
[12] = 24 hr after LPS stimulation, vs untreated MoDC
[13] = 8-MOP 0 to 200 ng/mL, UVA 1 or 2 J/cm2
[14] = product of 8-MOP and UVA exceeded 100

Chain of β1 integrin (CD29), active (open) conformation, on monocytes (human) (P05556 21-798): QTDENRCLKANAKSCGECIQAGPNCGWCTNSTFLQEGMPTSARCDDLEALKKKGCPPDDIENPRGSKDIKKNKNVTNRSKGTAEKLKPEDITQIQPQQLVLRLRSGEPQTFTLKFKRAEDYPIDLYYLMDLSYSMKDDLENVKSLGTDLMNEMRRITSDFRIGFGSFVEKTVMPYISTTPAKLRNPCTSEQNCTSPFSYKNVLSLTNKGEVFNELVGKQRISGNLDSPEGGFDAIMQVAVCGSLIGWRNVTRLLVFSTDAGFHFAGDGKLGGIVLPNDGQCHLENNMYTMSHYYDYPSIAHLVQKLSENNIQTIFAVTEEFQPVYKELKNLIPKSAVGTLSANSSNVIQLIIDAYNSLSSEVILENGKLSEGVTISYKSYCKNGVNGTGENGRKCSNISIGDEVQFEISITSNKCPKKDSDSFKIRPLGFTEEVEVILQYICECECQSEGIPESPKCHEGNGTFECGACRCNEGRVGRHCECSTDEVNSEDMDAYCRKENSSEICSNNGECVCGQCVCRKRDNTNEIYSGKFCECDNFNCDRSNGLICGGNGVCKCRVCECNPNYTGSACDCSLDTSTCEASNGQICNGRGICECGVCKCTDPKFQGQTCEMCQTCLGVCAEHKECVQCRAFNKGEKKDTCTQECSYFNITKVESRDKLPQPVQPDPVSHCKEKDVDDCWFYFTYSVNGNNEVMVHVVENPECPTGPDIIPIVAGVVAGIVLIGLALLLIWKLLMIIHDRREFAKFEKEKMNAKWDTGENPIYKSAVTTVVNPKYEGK

For `COc1c2occc2cc2ccc(=O)oc12` [8-MOP, 8-methoxypsoralen], which “GILZ up-regulation, MoDC cultured alone” value (GILZ [1]) is on record?
The value was 2.78 fold.

And the “Late apoptotic CD11c+ cells” value (CD11c+ cells; 1 J/cm^2, all doses of 8-MOP tested, 24 hr)?
The value was “less than 13%”.

What about the “Late apoptotic CD11c+ cells” value (CD11c+ cells; 2 J/cm^2, all doses of 8-MOP tested, 24 hr) of the same molecule?
The value was “less than 16%”.

What about the “Early apoptotic CD11c+ cells compared to untreated MoDC” value (CD11c+ cells; 2 J/cm^2 and 200 ng/mL, 24 hr) of the same molecule?
Its value is “increase”.

And the Cell death (CD11c+ cells; 4 J/cm^2 UVA (data not shown))?
The Cell death was “high levels of non-specific cell death”.

And the Early apoptotic lymphocytes (lymphocytes [2]; [11])?
The Early apoptotic lymphocytes was 44.3%.

What about the Late apoptotic lymphocytes (lymphocytes [2]; [11]) of the same molecule?
The Late apoptotic lymphocytes was 33.7%.

What about the “Time at which lymphocytes display Annexin-V after treatment” value (lymphocytes [2]; 1 J/cm^2 and 100 ng/mL (data not shown)) of the same molecule?
The value was ≤ 2 h.

What about the “Lymphocytes Annexin-V+” value (lymphocytes [2]; 24 hr after treatment) of the same molecule?
Its value is 64.3±3.2%.

What about the IL-10 production (MoDC [3]; [12]) of the same molecule?
The IL-10 production was “increased production of IL-10”.

What about the “Production of pro-inflammatory cytokines and chemokines” value (MoDC [3]; [12]) of the same molecule?
Its value is “decreased production of all pro-inflammatory cytokines and chemokines tested, except TNF-α and IFN-γ”.

What about the “Ratio of IL-10 to IL-12p70, MoDC cultured alone” value (MoDC [3]; after LPS, untreated MoDC 6.7) of the same molecule?
Its value is 38.7.

And the “Ratio of IL-10 to IL-12p70, PUVA-DC exposed to ApoL” value (MoDC [3]; after LPS, untreated MoDC 6.7)?
The value was 114.9.

And the “IL-10 to IL-12p70 ratio, non-transfected MoDC cultured alone” value (MoDC [4])?
The value was 8.4.

And the “IL-10 to IL-12p70 ratio, non-transfected PUVA-DC exposed to ApoL” value (MoDC [4])?
Its value is 28.4.

And the “ECP-processed lymphocytes apoptotic after overnight incubation” value (lymphocytes [5])?
The value was 99%.

And the “Membrane CD83, CD80 and CD86 expression (qualitative)” value (immature MoDC; [13])?
Its value is “down-regulates”.

And the “Membrane HLA-DR expression (qualitative)” value (immature MoDC; [13])?
Its value is “up-regulates”.

What about the “Increase of HLA-DR expression” value (immature MoDC; [14]) of the same molecule?
Its value is 38%.

And the “Reduction of CD80 expression” value (immature MoDC; [14])?
The value was 30%.

What about the “Reduction of CD83 expression” value (immature MoDC; [14]) of the same molecule?
Its value is 31%.

What about the “Reduction of CD86 expression” value (immature MoDC; [14]) of the same molecule?
Its value is 54%.

And the GILZ expression (GILZ [6]; 0.5 J/cm^2 UVA)?
Its GILZ expression is “no effect on GILZ expression until the 8-MOP concentration reached 200 ng/mL”.

What about the GILZ up-regulation (GILZ [6]; 1 J/cm^2 UVA, 100 ng/mL 8-MOP, 24 hr) of the same molecule?
The GILZ up-regulation was 2.9 fold.

And the GILZ up-regulation (GILZ [6]; 1 J/cm^2 UVA, 200 ng/mL 8-MOP, 24 hr)?
The GILZ up-regulation was 4.4 fold.

What about the “8-MOP concentration at which dose-dependent GILZ up-regulation starts” value (GILZ [6]; 2 J/cm^2 UVA) of the same molecule?
The value was 50 ng/mL.

What about the GILZ expression (GILZ [6]; 8-MOP alone, without UVA, 24 hr) of the same molecule?
The GILZ expression was “did not effect GILZ expression”.

And the “Time GILZ remains significantly elevated” value (GILZ [6]; 8-MOP and UVA light)?
Its value is 72 h.

And the “Time of peak GILZ induction after treatment” value (GILZ [6]; 8-MOP and UVA light)?
The value was 24 h.

What about the “GILZ expression in immature MoDC after 8-MOP plus UVA light (qualitative)” value (GILZ [6]; 24 hr after PUVA) of the same molecule?
Its value is “up-regulates GILZ”.

What about the GILZ expression increase (GILZ [6]; combination of 8-MOP and UVA light, relative to untreated MoDC (FIG. 10E)) of the same molecule?
Its GILZ expression increase is 5.5 fold.

What about the GILZ up-regulation (GILZ [6]; product of 8-MOP and UVA = 100) of the same molecule?
The GILZ up-regulation was 3 fold.

What about the GILZ up-regulation (GILZ [6]; product of 8-MOP and UVA = 200) of the same molecule?
The GILZ up-regulation was 4.8 fold.

And the GILZ up-regulation (GILZ [6]; product of 8-MOP and UVA = 400)?
The GILZ up-regulation was 8.6 fold.

How did the “GILZ up-regulation, MoDC cultured alone” value (GILZ [1]) turn out when `C[C@@H]1C[C@H]2[C@@H]3CCC4=CC(=O)C=C[C@]4(C)[C@@]3(F)[C@@H](O)C[C@]2(C)[C@@]1(O)C(=O)CO` [dexamethasone] was run?
The value was 4.29 fold.

What about the “Ratio of IL-10 to IL-12p70, MoDC cultured alone” value (MoDC [3]; after LPS, untreated MoDC 6.7) of the same molecule?
The value was 67.7.

What about the “IL-10 to IL-12p70 ratio, non-transfected MoDC cultured alone” value (MoDC [4]) of the same molecule?
Its value is 15.3.

For “anti-CD29 HUTS-21 (BD Biosciences) (antibody)”, which percent of monocytes that bound the antibody (baseline integrin activation) [7] is on record?
The percent of monocytes that bound the antibody (baseline integrin activation) was < 10%.

What about the percent of monocytes that bound the antibody (β1 in the active form) [8] of the same molecule?
Its percent of monocytes that bound the antibody (β1 in the active form) is 9%.

And the percent of monocytes that bound the antibody (β1 in the active form) [9]?
Its percent of monocytes that bound the antibody (β1 in the active form) is 71%.

What does the source list for thrombin?
P-selectin mean fluorescence intensity (MFI) (P-selectin): 108.3±23; Platelets P-selectin positive (P-selectin): 71±18%; DC differentiation of monocytes under static conditions (monocytes): neither activated nor non-activated platelets were capable of inducting DC differentiation; also recorded: did not cause a discernible difference

B1: RGD peptides, containing the amino-acid sequence Arg-Gly-Asp-Ser (peptide)
peptide: RGDS
For B1, which long-duration monocyte-platelet interactions under flow (video microscopy) [10] is on record?
The long-duration monocyte-platelet interactions under flow (video microscopy) was 44%.
